Ends that are not written are not given here.
Tests used:
MRSA P1386 = test: Growth inhibitory assay (growth curves); type: cell-based, S. aureus; details: measurements at 630 nm, 96-well plates; Figure 2B
Description: (§1) Figure 2 Gowth inhibitory activities of Kn2-7. (A) Growth curves of S. aureus AB94004 treated with Kn2-7, BmKn2 or antibiotics. (B) Growth curves of MRSA P1386 treated with Kn2-7, BmKn2 or antibiotics. (C) Growth curves of E. coli AB94012 treated with Kn2-7, BmKn2 or antibiotics.
(§2) The time growth curves of S. aureus and MRSA treated with BmKn2 or its derivatives were determined based on measurements taken at 630 nm at each time point. Different concentrations of peptide were added to the tested strains, which were cultured in 96-well plates using the same method as was used for determining the MIC.

E. coli AB94012 [1] = test: Growth inhibitory assay (growth curves); type: cell-based; details: at a concentration of 6.25 µg/mL; Figure 2C
Description: as §1, §2

S. aureus AB94004 [2] = test: Growth inhibitory assay (growth curves); type: cell-based; details: at a concentration of MICs; measurements at 630 nm, 96-well plates; Figure 2A
Description: as §1, §2

Biolayer interferometry = type: binding, S. aureus; details: 10 µg/mL biotinylated peptide on biosensor tips, 500 µg/mL LTA, 10 mM HEPES pH 7.4, 0.14 M NaCl, 30°C
Description: Figure 7 Binding assay of Kn2-7 and LTA or LPS. (A) Interaction of 10 µg/ml of Kn2-7 with 500 µg/ml of LPS or 500 µg/mL of LTA. Curve A3 is LPS, curve B3 is LTA and curve C3 is buffer. (B) Interaction of 10 µg/mL of BmKn2 with 500 µg/mL of LPS or 500 µg/mL of LTA. Curve D3 is LPS, curve E3 is LTA and curve F3 is the buffer. (C) MICs of Kn2-7 and BmKn2 treated with LTA or LPS against S. aureus and E. coli.
Biolayer Interferometry (BLI) experiments were performed on OCT RED (FortéBio, Inc.). A total of 500 µg/mL of lipoteichoic acid from S. aureus (LTA, Sigma, L2515), lipopolysaccharides from E. coli (LPS, Sigma, L2880) or buffer (10 mM HEPES, pH 7.4 and 0.14 M NaCl) was dispensed into 96-well microtiter plates at a volume of 200 µl per well. The operating temperature was 30°C. Biosensor tips (FortéBio, Inc., Menlo Park, CA) were pre-wetted with the buffer for 60 seconds at baseline. Then, 10 µg/mL Biotin-Kn2-7 or Biotin-BmKn2 was loaded onto the biosensor tips for 900 seconds. Baseline 2 was subsequently established for 300 seconds. Dissociation of Kn2-7 or BmKn2 occurred for 900 seconds in the buffer. Data were generated automatically by the Octet® User Software (version 3.1) and were subsequently analyzed from the resultant text files using Excel 2000.

E. coli AB94012 [3] = test: Enzyme release assay (catalase); type: cell-based; details: E. coli AB94012, 37°C; 0.9% saline negative control; Figure 4D
Description: (§3) Figure 4 Secondary structure and enzyme release assay of Kn2-7. (A) and (B) Secondary structure analysis of the Kn2-7 and BmKn2 peptides. (A) Circular dichroism spectra of 0.1 mg/mL of Kn2-7 in water, 30% TFE/H2O or 70% TFE/H2O. (B) Circular dichroism spectra of 0.1 mg/mL of BmKn2 in water, 30% TFE/H2O or 70% TFE/H2O. (C) and (D) Enzyme release assay. (C) S. aureus AB94004 treated with Kn2-7 or BmKn2 was harvested, and the catalase activities of the supernatants were measured; 0.9% saline was used as the negative control, and ampicillin sodium was used as the antibiotic control. (D) E. coli AB94012 treated with Kn2-7 or BmKn2 was harvested, and the catalase activities in the supernatants were measured; 0.9% saline was used as the negative control, and kanamycin was used as the antibiotic control.
(§4) Bacterial suspensions and serial-diluted peptides were mixed at a ratio of 4∶1 in different tubes with a final volume of 2 ml. The mixtures were then incubated at 37°C with continuous shaking. At each time point, 200 µl of the treated bacterial suspension was transferred to sterilized tubes. After centrifugation, the supernatants were transferred to a sterilized 1.5-ml tube, and catalase activity was measured with a Catalase Assay Kit (Beyotime, Jiangsu, China) using the method for measuring peroxidase activity.

S. aureus AB94004 [4] = test: Enzyme release assay (catalase); type: cell-based; details: S. aureus AB94004, 37°C; 0.9% saline negative control; Figure 4C
Description: as §3, §4

S. aureus AB94004 [5] = type: cell-based; details: for MIC S.aureus, substance alone: controls of the competition assay (Figure 7C): untreated peptide, or LTA / LPS alone
Description: To confirm the results of the BLI titrations, 250 µg/mL of Kn2-7 or BmKn2 was mixed with an equal volume of 1 mg/mL LTA or LPS. Then, the MICs of Kn2-7 or BmKn2 mixed with LTA against S. aureus and E. coli were measured. […] The MICs of Kn2-7 and BmKn2 treated with LTA against S. aureus were 25 and 12.5 µg/mL, respectively.
A total of 250 µg/mL of each peptide solution was mixed with an equal volume of 1 mg/mL of the LTA or LPS solution. Then, the MICs of BmKn2 and Kn2-7 treated with LTA or LPS against S. aureus AB94004 and E. coli AB94012 were measured.

E. coli AB94012 [6] = test: Bactericidal assay (time-killing); type: cell-based; details: samples at 0, 5, 15, 30, 60 min, colony counts, average of three dishes
Description: Figure 5 Bactericidal assays of the Kn2-7 and BmKn2 peptides against S. aureus and E. coli AB94012. Set point indicates untreated bacteria, and 0 minutes was defined as the time of the first sample collection, which was immediately after mixing bacteria and Kn2-7 or BmKn2. The other samples were collected at 5 min, 15 min, 30 min or 60 min. All of the counts were the average of three dishes, and the experiment was repeated at least three times. (A) Time-killing curve of Kn2-7 against S. aureus AB94004. (B) Time-killing curve of BmKn2 against S. aureus AB94004. (C) Time-killing curve of Kn2-7 against E. coli AB94012.
Bactericidal curves for Kn2-7 and BmKn2 were determined against S. aureus AB94004 and E. coli AB94012. A 400 µl aliquot of the peptide solution was added to 1,600 µl of a bacterial suspension. At each time point, 200 µl of the treated bacterial suspension was transferred to a sterilized 1.5-ml tube. After centrifugation at 1,000×g for 5 min, the supernatant was removed, and the pellet was resuspended in 200 µl of LB medium. The bacterial suspensions were placed on agar plates and incubated at 37°C until viable colonies could be counted.

Row | Substance | Growth inhibition of MRSA P1386 (growth curve) (MRSA P1386) | Growth inhibition of E. coli AB94012 (growth curve) (E. coli AB94012 [1]) | Growth inhibition of S. aureus (growth curve) (S. aureus AB94004 [2]) | Binding to LTA (BLI) (Biolayer interferometry) | Catalase activity of the supernatant over time (E. coli AB94012 [3]) | Catalase activity of the supernatant over time (S. aureus AB94004 [4]) | MIC S.aureus, peptide treated with LPS (S. aureus AB94004 [5]; 250 µg/mL peptide mixed with equal volume of 1 mg/mL LPS) | MIC S.aureus, peptide treated with LTA (S. aureus AB94004 [5]; 250 µg/mL peptide mixed with equal volume of 1 mg/mL LTA) | MIC S.aureus, substance alone (S. aureus AB94004 [5]) | Bactericidal effect (time-killing curve) (E. coli AB94012 [6])
1 | FIGAIARLLSKIF-NH2 [BmKn2] | inhibited the growth of MRSA P1386 completely | had no effect against E. coli AB94012 | inhibited the growth of S. aureus completely | bound strongly | low catalase activity at each time point | almost the same catalase activity at each time point | 6.25 µg/mL | 12.5 µg/mL | 6.25 µg/mL | not able to kill E. coli AB94012
2 | FIKRIARLLRKIF [Kn2-7] | inhibited the growth of MRSA P1386 completely | inhibited the growth of E. coli AB94012 | inhibited the growth of S. aureus completely | bound strongly | nearly the same high enzymatic activity at each time point | almost the same catalase activity at each time point | – | – | 3.13 µg/mL | able to kill E. coli AB94012 rapidly

From publication PMC3390344, “Antibacterial Activity and Mechanism of a Scorpion Venom Peptide Derivative In Vitro and In Vivo” (PLoS ONE, 2012)
